# Where two headings read alike, the source gives them in different places.
# Columns and labels:
# human β3 -AR = target: T1, human β3 -AR (Homo sapiens, UniProt P13945); assay: O2 consumption in knockout mice expressing the reconstituted human β3 -AR; format: in vivo, mouse; details: 10 mg/ml
# T1 construct: reconstituted with an 80 kb β3 -AR human genomic clone; expressed in transfected cells; host or cells: transgenic beta-3-AR-deficient mice (human genomic P1 insert injected into zygotes; mRNA detected in brown adipose tissue only)
# Procedure: The effects on oxygen consumption were then assessed according to standard methods (e.g., those described herein).
# (§1) Oxygen consumption was measured as described by Lowell et al. (supra) in twelve-week-old control, β3 -AR-deficient male mice, and β3 -AR-deficient knockout mice expressing the human β3-AR gene.
# β3 -AR [1] = format: biochemical, mouse; details: for reduction of stimulatory effect on adenylate cyclase activity: β3 -AR-deficient vs wild type
# Procedure: (§2) To determine the functional consequences of β3 -AR deficiency on β-adrenergic signalling, the effects of β-adrenergic agonists on adenylate cyclase activity and lipolysis were assessed. For determination of adenylate cyclase activity (FIG. 5), plasma membranes were obtained from isolated white adipocytes or interscapular brown adipose tissue, and then were incubated in the presence of various agonists. […] To assess lipolysis (FIGS. 6A and 6B), white adipocytes were isolated from epididymal fat pads, and then incubated in the presence of various agonists. Rates of lipolysis were determined by quantitating the release of glycerol.
# [2] = tested on: isolated white adipocytes; assay: Lipolysis (glycerol release) in isolated white adipocytes; format: cell-based, mouse; details: +ADA
# Procedure: as §2
# For analysis of lipolysis, isolated white adipocytes (100 μl of a 10% isolate fat cell suspension) were incubated in a final volume of 500 μl, and glycerol release was measured over a fifteen minute period. […] Except where noted, the incubation medium consisted of a Krebs-Ringer-Hepes (30 mM) buffer (pH 7.4) supplemented with 2.5% bovine serum albumin (fraction V), 10 μM PIA (N^6 -[R-(-)-1-methyl-2-phenyl]adenosine), 1 unit/ml adenosine deaminase, and varying concentrations of agonists.
# β3 -AR [3] = format: in vivo, mouse; details: for FFA: serum, fifteen minutes after injection
# Procedure: (§3) To determine the effect of β3 -AR deficiency on β-adrenergicsignaling in vivo, various adrenergic agonists were administered to control and knockout mice, and the effects on serum levels of FFAs, glycerol, and thermogenesis were assessed.
# (§4) Whole blood was collected and analyzed for blood glucose levels (One Touch Blood Glucose Meter, Lifescan, Inc., Milpitas, Calif.). Serum was then isolated and assayed for FFAs (NEFA C kit, Wako Pure Chemical Industries, Ltd.), glycerol (GPO-Trinder Kit, procedure 337, Sigma), and insulin (rat insulin kit, Linco Research Inc., St. Louis, Mo.) according to the manufacturers' protocols.
# β3 -AR [4] = format: in vivo, mouse; details: for stimulated oxygen consumption: β3 -AR-deficient male mice vs control
# Procedure: (§5) Mice that received norepinephrine were anesthetized with pentobarbital for the study.
# as §1
# β3 -AR [5] = assay: Acute effect on plasma insulin and blood glucose; format: in vivo, mouse; details: β3 -AR-deficient mice; 1 mg/kg intraperitoneal
# Description: (§6) FIGS. 8A-B are graphs showing the acute effect of saline or CL 316,243 on plasma insulin and blood glucose concentrations. […] Blood was obtained from the tail fifteen minutes after […]. The results are expressed as the mean ±S.E. (+/+=seven mice, -/-=four mice).
# as §4
# β3 -AR [6] = assay: Effect of a single dose on food intake; format: in vivo, mouse; details: β3 -AR-deficient mice; 1 mg/kg intraperitoneal; twenty-four hours
# Procedure: (§7) FIG. 9 is a graph showing the effect of a single dose of CL 316,243 on food intake. […] The mice were housed individually during the test period, and results for each group are the mean of five animals (±S.E.). Food intake was determined during the twenty-four hours following CL 316,243 or saline treatment.
# (§8) To acclimate the mice to injections and handling, saline was injected daily for three days preceding day zero of the study. The mice were housed individually during the study. Food was weighed before injection and twenty-four hours after, and the differences were assumed to represent grams of food eaten per day. The cages were inspected for food spillage, and none was noted.
# β3 -AR [7] = target: T2, β3 -AR (Mus musculus, UniProt P25962); format: in vivo; set-up: endogenous in cells; host or cells: whole mice (control +/+ and beta-3-AR-deficient -/-, FVB background)
# Procedure: as §3, §4
# β3 -AR [8] = target: T2, β3 -AR; assay: Effect of a single dose on food intake; format: in vivo; set-up: endogenous in cells; host or cells: whole mice (control +/+ and beta-3-AR-deficient -/-, FVB background); details: control mice; 1 mg/kg intraperitoneal; twenty-four hours
# Procedure: as §7, §8
# β3 -AR [9] = target: T2, β3 -AR; format: biochemical; set-up: plasma membranes of isolated white adipocytes (epididymal) or interscapular brown adipose tissue; -/- mice are null control; details: wild type mice; maximally effective / effective doses
# Procedure: as §2
# β3 -AR [10] = target: T2, β3 -AR; format: in vivo; set-up: plasma membranes of isolated white adipocytes (epididymal) or interscapular brown adipose tissue; -/- mice are null control; details: control mice; 1.0 mg/kg subcutaneously
# Procedure: as §5, §1
# β3 -AR [11] = target: T2, β3 -AR; assay: Acute effect on plasma insulin and blood glucose; format: in vivo; set-up: plasma membranes of isolated white adipocytes (epididymal) or interscapular brown adipose tissue; -/- mice are null control; details: control mice; 1 mg/kg intraperitoneal, fifteen minutes
# Description: as §6, §4
# T2 sequence (P25962 whole entry): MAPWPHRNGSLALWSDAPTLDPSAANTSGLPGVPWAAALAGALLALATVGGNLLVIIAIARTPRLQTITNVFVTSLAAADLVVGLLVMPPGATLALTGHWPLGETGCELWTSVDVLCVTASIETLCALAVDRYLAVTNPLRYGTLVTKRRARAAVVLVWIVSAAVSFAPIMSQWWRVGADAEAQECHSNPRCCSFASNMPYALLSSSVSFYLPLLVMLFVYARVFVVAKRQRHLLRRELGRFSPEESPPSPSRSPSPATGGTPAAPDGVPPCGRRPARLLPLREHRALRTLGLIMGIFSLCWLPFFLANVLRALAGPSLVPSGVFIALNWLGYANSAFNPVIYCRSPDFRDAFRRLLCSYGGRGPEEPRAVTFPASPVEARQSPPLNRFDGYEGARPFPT
# T1 sequence (P13945 whole entry): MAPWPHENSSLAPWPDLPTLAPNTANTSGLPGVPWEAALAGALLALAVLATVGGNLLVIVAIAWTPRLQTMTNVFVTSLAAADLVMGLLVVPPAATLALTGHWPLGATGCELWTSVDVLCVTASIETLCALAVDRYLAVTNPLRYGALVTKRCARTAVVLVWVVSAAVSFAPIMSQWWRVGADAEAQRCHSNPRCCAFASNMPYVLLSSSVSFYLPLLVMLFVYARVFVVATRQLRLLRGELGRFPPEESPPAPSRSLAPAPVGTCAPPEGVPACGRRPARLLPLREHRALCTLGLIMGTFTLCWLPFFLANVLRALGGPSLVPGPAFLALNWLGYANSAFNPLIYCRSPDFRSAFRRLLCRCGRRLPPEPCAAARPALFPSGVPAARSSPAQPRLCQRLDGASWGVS
compound,measurement,setting,value
CC(C)(C)NCC(O)COc1cccc2[nH]c(=O)[nH]c12 (stereo not shown) [CGP-12177],increase in oxygen consumption,human β3 -AR,twenty
"C[C@H](Cc1ccc2c(c1)OC(C(=O)O)(C(=O)O)O2)NC[C@H](O)c1cccc(Cl)c1 [CL 316,243]",adenylate cyclase activity in membranes,"β3 -AR [1]; β3 -AR-deficient mice, maximally effective doses",absent
same,lipolysis in adipocytes,"[2]; wild type mice, +PIA",stimulated
same,lipolysis in adipocytes,"[2]; β3 -AR-deficient mice, +PIA",absent
same,FFA,β3 -AR [3]; female -/-,630 ± 140 µM
same,increase in serum FFA levels,β3 -AR [3]; β3 -AR-deficient mice,totally absent
same,increase in oxygen consumption,"β3 -AR [4]; β3 -AR-deficient mice, 1.0 mg/kg subcutaneously",totally absent
same,effect on blood glucose,β3 -AR [5],completely without effect
same,effect on plasma insulin levels,β3 -AR [5],completely without effect
same,effect on food intake,β3 -AR [6],completely ineffective
same,increase in serum FFA levels,β3 -AR [7]; control mice,3.2 fold
same,FFA,"β3 -AR [7]; serum, fifteen minutes after injection, female +/+","2,260 ± 350 μM"
same,reduction in food intake,β3 -AR [8],forty-five
same,adenylate cyclase activity in membranes,β3 -AR [9],stimulated
same,increase in oxygen consumption,β3 -AR [10],2 fold
same,increase in plasma insulin levels,β3 -AR [11],140 fold
same,reduction in blood glucose,β3 -AR [11],fifty-six
"C[C@H](Cc1ccccc1)Nc1ncnc2c1ncn2[C@@H]1O[C@H](CO)[C@@H](O)[C@H]1O [PIA, N^6-[R-(-)-1-methyl-2-phenyl]adenosine]",inhibition of isoproterenol-stimulated lipolysis,"[2]; control adipocytes, with vs without PIA (10 μM)",only minimally inhibited
C=C[C@@]1(C)CC(=O)[C@]2(O)[C@@]3(C)[C@@H](O)CCC(C)(C)[C@@H]3[C@H](O)[C@H](OC(C)=O)[C@@]2(C)O1 [forskolin],lipolysis in adipocytes,"[2]; wild type mice, +PIA",stimulate lipolysis
same,lipolysis in adipocytes,"[2]; β3 -AR-deficient mice, +PIA",stimulate lipolysis
CC(C)NCC(O)c1ccc(O)c(O)c1 (stereo not shown) [isoproterenol],reduction of stimulatory effect on adenylate cyclase activity,β3 -AR [1]; membranes derived from brown adipose tissue,seventy
same,reduction of stimulatory effect on adenylate cyclase activity,β3 -AR [1]; membranes derived from isolated white adipocytes,eighty
same,stimulation of lipolysis,"[2]; wild type adipocytes, maximally effective concentration, +PIA",about five
same,reduction of stimulated lipolysis,"[2]; β3 -AR-deficient adipocytes, -PIA",about thirty-three
same,lipolysis in adipocytes,"[2]; β3 -AR-deficient mice, +PIA",absent
same,Glycerol,"β3 -AR [3]; mouse, in vivo",239 ± 15 µM
same,FFA,β3 -AR [3]; male -/-,1.510 ± 20 µM
same,stimulated oxygen consumption,"β3 -AR [4]; 0.3 mg/kg subcutaneously, awake",not significantly reduced
NC[C@H](O)c1ccc(O)c(O)c1 [norepinephrine],stimulated oxygen consumption,"β3 -AR [4]; 0.6 mg/kg subcutaneously, anesthetized with pentobarbital",not significantly reduced
"Adrenocorticotropic hormone (SYSMEHFRWGKPVGKKRRPVKVYPNGAEDESAEAFPLEF; Corticotropin; UniProt P01189 138-176, looked up) [ACTH, hormone that stimulates lipolysis via a seven-transmembrane receptor Gαs -adenylate cyclase-coupled mechanism]",lipolysis in adipocytes,"[2]; wild type mice, +PIA",increase lipolysis
same,lipolysis in adipocytes,"[2]; β3 -AR-deficient mice, +PIA",increase lipolysis

# Source: patent US5789654A, “Transgenic animals deficient in endogenous β3 -adrenergic receptor and uses thereof” (Beth Israel Hospital Association, priority 1996, dated 1998)
